Measured values published in patent US20190390277A1, “DIAGNOSIS OF PARKINSON'S DISEASE ON THE BASIS OF DECREASED OVERALL TRANSLATION” (ÅBO AKADEMI UNIVERSITY, priority 2016, published 2019).
“Also recorded” adds a separate entry of the source.

Experiments:
Lrrk2 [1] = biological target: T1, Lrrk2 (Mesocricetus auratus, UniProt A0A1U7Q7Z2); test: LRRK2 activity by phospho-S935-LRRK2 immunoblot in BHK21 cells; format: cell-based; settings: intact BHK21 cells, rotenone 4 h
T1 construct: endogenous in cells; host or cells: BHK21 cells
Procedure: Methods. To examine the effect of rotenone treatment on LRRK2 activity, BHK21 cells were treated with or without the indicated dose of rotenone for 4 h. Cells were lysed in Laemmli buffer and proteins separated by SDS PAGE. LRRK2 activity was determined by immunoblotting with an antibody detecting phospho-S935-LRRK2. Blots were reprobed with an antibody detecting LRRK2 to establish loading variability. LRRK2 activity was quantified by densitometry of gel exposures captured using the Gel Doc XR system (Biorad).

dopaminergic neurons [2] = test: Rotenone-induced neurite atrophy of TH-positive dopaminergic neurons in midbrain cultures; format: cell-based, rat; settings: 24 h; for effect on rotenone induced loss of neurites in dopaminergic neurons: LRRK2-IN1 1 μM, GSK-2578215A 1 μM, MLi-2 10 or 50 nM, with rotenone
Procedure: The cultures were immunostained for Tyrosine hydroxylase to identify dopaminergic neurons. The percentage of dopaminergic, TH-positive cells that had intact neurites are shown. […] Mean data +/− standard deviation from two independent experiments are shown. Over 300 cells were scored per condition. b) A representative fluorescence micrograph showing TH immunostaining (green) dopaminergic neurons is shown. (c,d) Treatment with three structurally different LRRK2 inhibitors, LRRK2-IN1 (1 μM), GSK-2578215A (1 μM) or MLi-2 (10 or 50 nM) prevented rotenone induced loss of neurites in the dopaminergic neurons. […] Standard errors of the mean are shown. #, p<0.0001.
Methods. Rotenone treatment of cell cultures—Midbrain neurons from P0 rat were plated at a density of 200,000 cells per well. At 3 days in vitro, cells were treated with rotenone in DMSO with or without IN1, GSK-2578215A of MLi-2 at the concentrations indicated. After 24 h, cells were fixed with 4% PFA in PBS and tyrosine hydroxylase (TH) was detected by standard immunostaining methods obvious to those skilled in the art. Cells were imaged using a Zeiss AxioVert 200M microscope. To measure atrophy, the % of TH-positive neurons with intact neurites was scored.

hippocampal neurons [3] = test: S35-methionine metabolic labelling of de novo protein synthesis in hippocampal neurons; format: cell-based; settings: rotenone 0.01-10 μM, 2 hr
Procedure: Methods. Measurement of protein translation using various S35-methioine-labelling—In order to model PD in vitro, hippocampal neurons were metabolically labelled with S35-methionine. Hippocampal neurons in 24 well plates were transferred to Met/Cys-free medium (Invitrogen, Gibco). Cells were treated with for 30 min 37 C, 5% CO2. 50 μl per well of labeling medium (100 μCi Met-S35/ml) was added and cells grown at 37°, 5% CO2 for 2 hr in the presence or absence of rotenone (0.01-10 μM). Cells were washed and lysed in 75 μl Laemmli lysis buffer. Samples were separated by SDS PAGE, incubated with EN3HANCE (NEN), gels dried and exposed to auto-radiographic film with intensifying screen to determine relative levels of de novo protein synthesis.

dopaminergic neurons [4] = test: FUNCAT protein translation in midbrain cultures (dopaminergic neurons); format: cell-based; settings: TH-positive neurons, 3 days post-plating
Text: FIG. 6 uses click chemistry to label newly synthesised proteins with AHA. […] Dopaminergic neurons are visualised by tyrosine hydroxylase (TH) staining. a) Representative images of midbrain cultures treated with increasing concentrations of Lrrk2 IN2, and stained for TH is shown. b,c) protein translation in the somas of TH-positive and TH-negative cells is shown. d) The effect of anisomycin (to inhibit translation) on mid brain culture de novo protein synthesis is shown by representative images. e) Quantitative data from d is shown. p-values are shown on the graphs above the data points to which they apply.
Methods. To measure protein translation in dopaminergic neurons, mid brain cultures were plated at densities of 500,000 cells per well on round coverslips (1.3 cm diameter) in 24-well plates. At 3 days post-plating neurons underwent FUNCAT (see example 4). Dopaminergic neurons were detected by tyrosine hydroxylase immunofluorescence. Fluorescent intensity was measured as described in example 4 (methods).

hippocampal neurons [5] = test: FUNCAT (AHA/Alexa-488) protein translation in hippocampal neurons; format: cell-based, rat; settings: for level of de novo protein synthesis (fluorescence intensity): hippocampal neurons, soma and dendrites; for dose (as low as) at which protein synthesis was significantly increased: hippocampal neuron somas and dendrites
Text: Objective. To test whether Lrrk2 regulated ribosomal function in neurons, we measured the effect of three structurally independent inhibitors of Lrrk2 on de novo protein synthesis using non-canonical amino acid labeling. Rat hippocampal neurons were labelled using L-azido-homoalanine (AHA), a methionine analogue, followed by copper-I-catalyzed alkyne-azide cycloaddition of Alexa-488 with an alkyne moiety to visualize newly synthesized proteins, as previously de-scribed^8.
Methods. Measuring protein translation in hippocampal neurons using FUNCAT. To measure protein translation, hippocampal neurons were plated at densities of 100,000 cells per well on round coverslips (1.3 cm diameter) in 24-well plates. Protein translation was measured following 20 h after plating. Cells were washed once and incubated with methionine-free DMEM medium (Gibco, Thermo Fisher Scientific) supplemented with 2 mM glutamine. Then 1 mM L-azidohomoalanine (AHA) was added for 30 min. Cells were washed with 1 ml PBS and fixed with 4% paraformaldehyde. LRRK2 inhibitors, when used, were added in the methionine-free medium and retained throughout the AHA labelling procedure. Cells were permeabilized in block solution (0.25% Triton X100, 0.2% BSA, 5% sucrose, 10% horse serum in PBS), and washed 5 times with 1 ml of 3% BSA in PBS. In situ labeling with AHA was achieved using a click-it reaction to covalently Alexa-488, using reagents from ThermoFisher Life Technologies (catalogue #A10267). Coverslips were mounted in Mowiol containing 2.5% 1,4-Diazabicyclo[2.2.2]octane. Fluorescent images were acquired using a Leica DMRE microscope and Hamamatsu Photonics ORCA C4742-95 CCD camera and Zen software (Carl Zeiss). Mean fluorescence intensities were measured from regions of interest in the perisomal region. Dendrite measurements were taken from line intensities (10 μm lines from the soma into the dendrite).

PBMCs and fibroblasts = test: AHA labelling, biotin-alkyne enrichment and anti-biotin-HRP immunoblot of nascent proteins in PBMCs and fibroblasts; format: cell-based, human; settings: AHA-labelled PBMCs and fibroblasts, streptavidin bead purification
Text: Patient samples were from the NINDS-Coriell Institute in the USA, the European Biobank in Milan and the Turku University Hospital (T.U.H.) cohort in Finland. a) A heat map showing intensity values for MS/MS-identified nascent proteins from AHA-labelled cells (fibroblasts and PBMCs). Nascent proteins were isolated following covalent linkage to alkyne-agarose beads. After tryptic digestion, the released peptides were sequenced by mass spectrometry and identified using Maxquant software. As negative controls to determine non-specific protein binding, cells were labelled with methionine instead of AHA. […] This approach yields a set of peptides that can be rapidly quantitated using a mass spectrometer using data dependant acquisition (DDA) using Selected Reaction Monitoring or Parallel Reaction Monitoring or by data independent acquisition (DIA) or using other types of mass spectrometry methods. […] It is compared to samples that were labelled with methionine instead of AHA. […]
Sepharose was washed 2× with 1 ml LiCl buffer (500 mM LiCl2, 100 mM Tris, pH 7.6, 0.1% TX100, 1 mM DTT), followed by 4×1 ml PBS washes. […] Samples were either in-gel digested with trypsin for MS/MS identification (example 1) or transferred to nitrocellulose for quantitative immunoblot detection using an anti-biotin, horse-radish peroxidase (HRP)-conjugated antibody (Cell Signalling Technology) (example 9b). […]

patient skin fibroblasts = test: Nascent protein synthesis (AHA/Alexa-488) in PD patient skin fibroblasts; format: cell-based, human; settings: sporadic and G2019S PD fibroblasts; 1 μM IN1 or 0.01 μM MLi-2
Procedure: Methods. For FIG. 7, we measured mRNA translation in fibroblasts cultivated from patient skin biopsies using the non-canonical labelling approach outlined in example 4 with the following modifications. Fibroblasts were passaged upon reaching 95% confluence and assayed at passage 7-9. For measurement of nascent protein synthesis, fibroblasts at 48 h post plating were depleted of methionine and incubated with AHA, followed by AHA-click conjugation of Alexa-488 as described in the methods section of example 4. Average somatic fluorescent intensities were measured. As not all fibroblast lines could be assayed simultaneously, patient lines were paired with one or more control lines of equivalent passage and assayed on the same day.

Lrrk2 [6] = biological target: Lrrk2 (Homo sapiens, UniProt Q5S007); settings: blocks Lrrk2; read-out: biochemical IC50; cited from earlier work
BHK21 cells = test: Protein translation by AHA labelling and click Alexa-488 in rotenone-treated BHK21 cells; format: cell-based; settings: rotenone 100 nM, 1 μM LRRK2-IN1
Procedure: Furthermore, LRRK2-G2019S directly impairs protein translation in a reconstituted translation system. a) LRRK2 activity is inferred using a phospho-specific antibody ([…]) that recognises the active form of LRRK2. b) Quantitative data from 6 independent repeats as shown in (a). c, d) To determine whether inhibition of LRRK2 kinase activity could recover normal protein translation in cultured cells, BHK21 cells were treated with or without rotenone (100 nM) in the presence or absence of the indicated concentration of LRRK2-IN1. Protein translation was measured using non-canonical amino acid labelling with AHA followed by copper-catalysed click addition of alkyne-Alexa-488. Representative fluorescent micrographs (c) and quantitative data (d) are shown. […] Standard errors of the mean are plotted. #, p<0.0001.
To determine whether inhibition of LRRK2 activity could recover normal translation in BHK21 cells following rotenone treatment, BHK21 cells with or without prior treatment (30 min) with LRRK2 inhibitor (1 or 10 μM of IN1) were treated with rotenone or carrier (control) as indicated. Translation was visualized following AHA labeling and immunofluorescence quantified as earlier.

T1 sequence (A0A1U7Q7Z2 1-2527): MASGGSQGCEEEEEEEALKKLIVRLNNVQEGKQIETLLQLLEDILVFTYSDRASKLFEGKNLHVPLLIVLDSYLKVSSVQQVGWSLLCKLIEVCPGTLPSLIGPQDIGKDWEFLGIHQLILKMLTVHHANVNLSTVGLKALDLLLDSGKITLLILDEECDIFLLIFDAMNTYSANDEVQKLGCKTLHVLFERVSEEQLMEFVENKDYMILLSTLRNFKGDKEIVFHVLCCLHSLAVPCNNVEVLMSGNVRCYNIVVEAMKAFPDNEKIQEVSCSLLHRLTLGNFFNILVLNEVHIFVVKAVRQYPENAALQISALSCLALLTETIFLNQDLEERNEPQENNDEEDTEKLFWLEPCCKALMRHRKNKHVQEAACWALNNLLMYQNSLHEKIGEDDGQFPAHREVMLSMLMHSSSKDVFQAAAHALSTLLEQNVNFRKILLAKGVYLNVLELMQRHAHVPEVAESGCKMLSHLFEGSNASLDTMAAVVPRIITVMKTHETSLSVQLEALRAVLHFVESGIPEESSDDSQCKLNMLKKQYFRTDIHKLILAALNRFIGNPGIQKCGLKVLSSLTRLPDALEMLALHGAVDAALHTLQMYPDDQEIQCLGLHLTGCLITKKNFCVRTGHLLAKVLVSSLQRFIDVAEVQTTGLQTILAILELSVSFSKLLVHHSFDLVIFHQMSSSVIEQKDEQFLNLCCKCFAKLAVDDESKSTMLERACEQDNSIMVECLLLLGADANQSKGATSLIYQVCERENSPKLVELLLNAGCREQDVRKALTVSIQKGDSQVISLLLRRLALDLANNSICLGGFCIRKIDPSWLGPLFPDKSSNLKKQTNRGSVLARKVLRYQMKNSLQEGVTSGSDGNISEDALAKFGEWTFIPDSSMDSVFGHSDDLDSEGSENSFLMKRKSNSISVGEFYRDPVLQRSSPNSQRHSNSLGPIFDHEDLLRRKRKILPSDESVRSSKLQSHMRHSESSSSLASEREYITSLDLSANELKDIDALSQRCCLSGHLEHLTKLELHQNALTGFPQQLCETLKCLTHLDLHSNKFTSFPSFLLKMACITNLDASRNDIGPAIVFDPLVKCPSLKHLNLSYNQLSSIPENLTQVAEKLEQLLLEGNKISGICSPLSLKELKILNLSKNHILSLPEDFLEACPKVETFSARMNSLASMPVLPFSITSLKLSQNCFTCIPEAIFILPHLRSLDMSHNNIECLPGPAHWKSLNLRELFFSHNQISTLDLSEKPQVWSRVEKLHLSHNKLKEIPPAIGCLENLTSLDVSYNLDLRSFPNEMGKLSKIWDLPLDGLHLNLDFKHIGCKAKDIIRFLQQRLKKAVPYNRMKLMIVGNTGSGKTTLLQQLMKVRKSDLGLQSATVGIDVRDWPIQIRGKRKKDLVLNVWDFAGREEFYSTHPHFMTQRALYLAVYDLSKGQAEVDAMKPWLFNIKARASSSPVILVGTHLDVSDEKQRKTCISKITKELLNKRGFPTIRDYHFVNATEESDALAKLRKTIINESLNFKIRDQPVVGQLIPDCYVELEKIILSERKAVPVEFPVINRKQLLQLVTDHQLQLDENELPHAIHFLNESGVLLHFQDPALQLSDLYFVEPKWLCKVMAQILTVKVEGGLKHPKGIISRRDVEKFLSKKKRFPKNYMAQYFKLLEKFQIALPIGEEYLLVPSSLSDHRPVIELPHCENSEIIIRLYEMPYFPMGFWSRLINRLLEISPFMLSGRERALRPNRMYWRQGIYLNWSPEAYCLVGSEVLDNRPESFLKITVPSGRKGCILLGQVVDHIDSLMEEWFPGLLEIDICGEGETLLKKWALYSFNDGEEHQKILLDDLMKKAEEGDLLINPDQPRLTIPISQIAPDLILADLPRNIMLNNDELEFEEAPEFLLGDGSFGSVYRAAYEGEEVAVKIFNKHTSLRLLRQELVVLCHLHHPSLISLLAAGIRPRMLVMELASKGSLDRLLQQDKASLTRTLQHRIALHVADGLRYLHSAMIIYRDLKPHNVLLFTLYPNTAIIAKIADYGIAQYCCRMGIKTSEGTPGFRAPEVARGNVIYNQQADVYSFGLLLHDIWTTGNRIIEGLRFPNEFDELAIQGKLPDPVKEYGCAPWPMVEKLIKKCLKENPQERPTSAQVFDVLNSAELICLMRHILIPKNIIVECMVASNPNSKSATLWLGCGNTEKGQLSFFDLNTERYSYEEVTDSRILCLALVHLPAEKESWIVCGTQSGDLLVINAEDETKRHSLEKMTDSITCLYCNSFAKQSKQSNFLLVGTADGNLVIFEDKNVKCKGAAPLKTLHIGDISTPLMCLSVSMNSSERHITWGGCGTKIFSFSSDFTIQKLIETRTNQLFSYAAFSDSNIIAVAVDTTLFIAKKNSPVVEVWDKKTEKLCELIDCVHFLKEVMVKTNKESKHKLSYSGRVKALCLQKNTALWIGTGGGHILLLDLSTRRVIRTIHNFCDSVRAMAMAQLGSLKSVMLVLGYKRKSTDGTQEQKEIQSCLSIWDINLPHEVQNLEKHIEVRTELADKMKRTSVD
Chain of Lrrk2 (Homo sapiens, UniProt Q5S007) (Q5S007 whole entry, species assumed): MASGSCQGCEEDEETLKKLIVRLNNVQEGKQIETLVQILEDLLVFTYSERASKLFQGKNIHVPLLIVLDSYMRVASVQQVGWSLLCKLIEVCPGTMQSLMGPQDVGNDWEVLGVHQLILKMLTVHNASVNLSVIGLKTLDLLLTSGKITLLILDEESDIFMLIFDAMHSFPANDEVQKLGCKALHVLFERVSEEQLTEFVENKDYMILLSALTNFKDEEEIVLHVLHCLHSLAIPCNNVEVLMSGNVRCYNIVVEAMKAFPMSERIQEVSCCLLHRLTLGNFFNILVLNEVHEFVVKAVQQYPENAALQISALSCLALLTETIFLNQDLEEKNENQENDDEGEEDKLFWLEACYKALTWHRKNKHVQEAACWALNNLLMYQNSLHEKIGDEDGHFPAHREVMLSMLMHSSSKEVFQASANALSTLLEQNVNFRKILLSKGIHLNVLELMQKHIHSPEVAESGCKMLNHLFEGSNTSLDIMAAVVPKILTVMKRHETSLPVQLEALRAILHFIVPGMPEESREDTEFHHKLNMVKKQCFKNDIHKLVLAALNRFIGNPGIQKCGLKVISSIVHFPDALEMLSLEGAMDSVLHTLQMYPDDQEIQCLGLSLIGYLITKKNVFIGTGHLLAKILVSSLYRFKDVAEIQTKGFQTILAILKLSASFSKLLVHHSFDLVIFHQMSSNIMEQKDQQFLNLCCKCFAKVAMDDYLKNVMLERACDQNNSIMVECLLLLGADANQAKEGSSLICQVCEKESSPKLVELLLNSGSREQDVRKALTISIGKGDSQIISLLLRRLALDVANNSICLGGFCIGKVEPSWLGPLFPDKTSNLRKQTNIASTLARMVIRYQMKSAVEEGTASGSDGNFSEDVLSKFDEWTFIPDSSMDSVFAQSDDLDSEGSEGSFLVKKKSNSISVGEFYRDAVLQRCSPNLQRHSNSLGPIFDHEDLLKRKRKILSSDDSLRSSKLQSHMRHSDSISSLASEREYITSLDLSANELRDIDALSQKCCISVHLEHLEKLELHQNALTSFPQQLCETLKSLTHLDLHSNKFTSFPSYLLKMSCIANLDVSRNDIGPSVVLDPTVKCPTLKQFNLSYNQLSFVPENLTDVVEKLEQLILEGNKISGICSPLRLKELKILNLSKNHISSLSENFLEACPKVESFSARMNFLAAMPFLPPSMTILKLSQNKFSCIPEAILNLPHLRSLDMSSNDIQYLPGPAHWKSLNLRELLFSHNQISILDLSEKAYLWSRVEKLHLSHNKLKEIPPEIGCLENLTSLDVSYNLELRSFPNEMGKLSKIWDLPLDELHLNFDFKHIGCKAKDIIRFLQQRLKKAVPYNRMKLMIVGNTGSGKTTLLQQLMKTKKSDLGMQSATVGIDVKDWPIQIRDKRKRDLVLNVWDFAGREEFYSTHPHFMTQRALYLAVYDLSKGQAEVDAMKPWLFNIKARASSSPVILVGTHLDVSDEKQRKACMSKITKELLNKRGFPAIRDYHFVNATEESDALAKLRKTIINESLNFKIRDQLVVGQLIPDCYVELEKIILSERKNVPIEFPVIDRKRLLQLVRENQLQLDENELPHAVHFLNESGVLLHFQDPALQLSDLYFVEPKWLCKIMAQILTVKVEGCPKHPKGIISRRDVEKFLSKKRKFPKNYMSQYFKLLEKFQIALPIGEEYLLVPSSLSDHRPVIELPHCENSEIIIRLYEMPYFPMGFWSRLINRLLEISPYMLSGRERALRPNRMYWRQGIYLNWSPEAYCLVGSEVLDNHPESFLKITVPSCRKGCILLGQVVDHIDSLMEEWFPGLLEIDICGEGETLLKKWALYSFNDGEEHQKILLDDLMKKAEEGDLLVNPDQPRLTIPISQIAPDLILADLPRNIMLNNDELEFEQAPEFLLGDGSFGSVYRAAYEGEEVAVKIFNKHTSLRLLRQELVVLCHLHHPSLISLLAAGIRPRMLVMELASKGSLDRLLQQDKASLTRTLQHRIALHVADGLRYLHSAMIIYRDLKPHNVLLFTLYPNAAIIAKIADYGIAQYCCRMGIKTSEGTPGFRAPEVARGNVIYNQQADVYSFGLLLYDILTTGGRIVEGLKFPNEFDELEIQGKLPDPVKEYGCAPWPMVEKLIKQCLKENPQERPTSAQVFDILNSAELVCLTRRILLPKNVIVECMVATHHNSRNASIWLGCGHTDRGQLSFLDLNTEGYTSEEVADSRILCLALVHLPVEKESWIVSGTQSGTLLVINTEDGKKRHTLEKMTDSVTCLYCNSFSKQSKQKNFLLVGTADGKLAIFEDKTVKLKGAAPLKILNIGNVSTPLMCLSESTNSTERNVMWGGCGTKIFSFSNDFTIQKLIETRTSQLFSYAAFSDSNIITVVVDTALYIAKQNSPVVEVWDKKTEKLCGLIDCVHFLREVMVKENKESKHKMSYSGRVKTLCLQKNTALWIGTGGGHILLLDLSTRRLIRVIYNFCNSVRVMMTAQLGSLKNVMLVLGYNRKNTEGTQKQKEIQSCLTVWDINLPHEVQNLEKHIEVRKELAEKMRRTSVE

| Molecule | level of de novo protein synthesis (fluorescence intensity) (hippocampal neurons [5]) | dose (as low as) at which protein synthesis was significantly increased (hippocampal neurons [5]) [µM] | effect on rotenone induced loss of neurites in dopaminergic neurons (dopaminergic neurons [2]) | reversal of decreased protein synthesis in PD patient fibroblasts (patient skin fibroblasts) | also measured |
| --- | --- | --- | --- | --- | --- |
| C=C(C)[C@H]1Cc2c(ccc3c2O[C@@H]2COc4cc(OC)c(OC)cc4[C@@H]2C3=O)O1 [Rotenone] | – | – | – | – | LRRK2 activity (phospho-S935-LRRK2) (Lrrk2 [1]): dose dependently increased; percentage of TH-positive cells with intact neurites (dopaminergic neurons [2]; rotenone 0-100 nM): induced atrophy; also recorded: dose dependent loss of neurites; de novo protein synthesis (S35-methionine labelling) (hippocampal neurons [3]): dose-dependently decreased |
| COc1ccc(C[C@H]2NC[C@H](O)[C@H]2OC(C)=O)cc1 [Anisomycin] | effectively inhibited | – | – | – | protein translation (fluorescence) (dopaminergic neurons [4]): effectively reduced; anti-biotin immunoblot signal of nascent proteins (PBMCs and fibroblasts): no signal |
| O=C(Nc1cccnc1)c1cc(-c2ccnc(F)c2)ccc1OCc1ccccc1 [GSK-2578215A] | – | 0.1 | prevented | – | – |
| 3-(4-Pyrinimidyl) Indazole [MLi-2] | increased | 0.01 | prevented | reversed to a normal level | – |
| COc1cc(C(=O)N2CCC(N3CCN(C)CC3)CC2)ccc1Nc1ncc2c(n1)N(C)c1ccccc1C(=O)N2C [LRRK2-IN1] | – | 0.1 | prevented | reversed | IC50 (Lrrk2 [6]): 10 nM; protein translation level after rotenone (BHK21 cells): recovered to control level |
